Data as given in patent publication US20250042875A1, “PESTICIDALLY ACTIVE PYRIDAZINONE COMPOUNDS” (SYNGENTA CROP PROTECTION AG, priority 2021, published 2025).

How the values were obtained:
Type in all cases: in vivo
Euschistus heros = assay: Activity against Euschistus heros (neotropical brown stink bug), soybean leaves, N2 nymphs; settings: 120 h, application rate 200 ppm, 5 days after infestation, read-out: effect in at least one of the two categories (mortality or growth inhibition)
Experimental: Example B3: Activity Against Euschistus heros (Neotropical Brown Stink Bug)
Soybean leaves on agar in 24-well microtiter plates were sprayed with aqueous test solutions prepared from 10′000 ppm DMSO stock solutions. After drying the leaves were infested with N2 nymphs. The samples were assessed for mortality and growth inhibition in comparison to untreated samples 5 days after infestation.

Plutella xylostella = assay: Activity against Plutella xylostella (diamond back moth), artificial diet, eggs; settings: 192 h, application rate 200 ppm, 8 days after infestation, read-out: control in at least one of the two categories (mortality or growth inhibition)
Experimental: Example B7: Activity Against Plutella xylostella (Diamond Back Moth)
24-well microtiter plates with artificial diet were treated with aqueous test solutions prepared from 10′000 ppm DMSO stock solutions by pipetting. After drying, Plutella eggs were pipetted through a plastic stencil onto a gel blotting paper and the plate was closed with it. The samples were assessed for mortality and growth inhibition in comparison to untreated samples 8 days after infestation.

Chilo suppressalis = assay: Activity against Chilo suppressalis (striped rice stemborer), artificial diet, L2 larvae; settings: 144 h, application rate 200 ppm, 6 days after infestation, read-out: control in at least one of the three categories (mortality, anti-feedant effect, or growth inhibition)
Experimental: Example B1: Activity Against Chilo suppressalis (Striped Rice Stemborer)
24-well microtiter plates with artificial diet were treated with aqueous test solutions prepared from 10′000 ppm DMSO stock solutions by pipetting. After drying, the plates were infested with L2 larvae (6-8 per well). The samples were assessed for mortality, anti-feeding effect, and growth inhibition in comparison to untreated samples 6 days after infestation. Control of Chilo suppressalis by a test sample is given when at least one of the categories mortality, anti-feedant effect, and growth inhibition is higher than the untreated sample.

Spodoptera littoralis = assay: Activity against Spodoptera littoralis (Egyptian cotton leaf worm), cotton leaf discs, L1 larvae; settings: foliar, 72 h, application rate 200 ppm, 3 days after infestation, read-out: control in at least one of the three categories (mortality, anti-feedant effect, or growth inhibition)
Experimental: Example B8: Activity Against Spodoptera littoralis (Egyptian Cotton Leaf Worm)
Cotton leaf discs were placed onto agar in 24-well microtiter plates and sprayed with aqueous test solutions prepared from 10′000 ppm DMSO stock solutions. After drying the leaf discs were infested with five L1 larvae. The samples were assessed for mortality, anti-feeding effect, and growth inhibition in comparison to untreated samples 3 days after infestation. Control of Spodoptera littoralis by a test sample is given when at least one of the categories mortality, anti-feedant effect, and growth inhibition is higher than the untreated sample.

Myzus persicae = assay: Activity against Myzus persicae (green peach aphid), intrinsic activity; settings: 120 h, test rate 12 ppm, 5 days after infestation
Source text: Example B6: Activity Against Myzus persicae (Green Peach Aphid). Intrinsic Activity
Test compounds prepared from 10′000 ppm DMSO stock solutions were applied by pipette into 24-well microtiter plates and mixed with sucrose solution. The plates were closed with a stretched Parafilm. A plastic stencil with 24 holes was placed onto the plate and infested pea seedlings were placed directly on the Parafilm. The infested plate was closed with a gel blotting paper and another plastic stencil and then turned upside down. The samples were assessed for mortality 5 days after infestation.

Diabrotica balteata = assay: Activity against Diabrotica balteata (corn root worm), maize sprouts, L2 larvae; settings: 96 h, application rate 200 ppm, 4 days after infestation, read-out: control in at least one of the two categories (mortality or growth inhibition)
Experimental: Example B2: Activity Against Diabrotica Balteata (Corn Root Worm)
Maize sprouts placed onto an agar layer in 24-well microtiter plates were treated with aqueous test solutions prepared from 10′000 ppm DMSO stock solutions by spraying. After drying, the plates were infested with L2 larvae (6 to 10 per well). The samples were assessed for mortality and growth inhibition in comparison to untreated samples 4 days after infestation.

C[C@H](NC(=O)c1cc(I)cc(C(F)(F)F)c1)c1ncnn1-c1ccc(=O)n(C)n1 [P36, 3-iodo-N-[(1S)-1-[2-(1-methyl-6-oxo-pyridazin-3-yl)-1,2,4-triazol-3-yl]ethyl]-5-(trifluoromethyl)benzamide]
≥ 80%: percent effect (mortality or growth inhibition) at 200 ppm (Euschistus heros) | percent control (mortality or growth inhibition) at 200 ppm (Plutella xylostella) | percent control (mortality, anti-feedant effect or growth inhibition) at 200 ppm (Chilo suppressalis) | percent control (mortality, anti-feedant effect or growth inhibition) at 200 ppm (Spodoptera littoralis) | mortality at 12 ppm (Myzus persicae) | percent control (mortality or growth inhibition) at 200 ppm (Diabrotica balteata)

C[C@H](NC(=O)c1cc(C(F)(F)F)cc(C2(C#N)CC2)c1)c1ncnn1-c1ccc(=O)n(C)n1 [P25, 3-(1-cyanocyclopropyl)-N-[(1S)-1-[2-(1-methyl-6-oxo-pyridazin-3-yl)-1,2,4-triazol-3-yl]ethyl]-5-(trifluoromethyl)benzamide]
≥ 80%: percent effect (mortality or growth inhibition) at 200 ppm (Euschistus heros) | percent control (mortality or growth inhibition) at 200 ppm (Plutella xylostella) | percent control (mortality, anti-feedant effect or growth inhibition) at 200 ppm (Chilo suppressalis) | percent control (mortality, anti-feedant effect or growth inhibition) at 200 ppm (Spodoptera littoralis) | mortality at 12 ppm (Myzus persicae) | percent control (mortality or growth inhibition) at 200 ppm (Diabrotica balteata)

C[C@H](NC(=O)c1cc(Cl)cc(C(F)F)c1)c1ncnn1-c1ccc(=O)n(C)n1 [P42, 3-chloro-5-(difluoromethyl)-N-[(1S)-1-[2-(1-methyl-6-oxo-pyridazin-3-yl)-1,2,4-triazol-3-yl]ethyl]benzamide]
≥ 80%: percent effect (mortality or growth inhibition) at 200 ppm (Euschistus heros) | percent control (mortality or growth inhibition) at 200 ppm (Plutella xylostella) | percent control (mortality, anti-feedant effect or growth inhibition) at 200 ppm (Spodoptera littoralis) | mortality at 12 ppm (Myzus persicae) | percent control (mortality or growth inhibition) at 200 ppm (Diabrotica balteata)

CC(NC(=O)c1cc(Br)nc(C2(C#N)CC2)c1)c1nccnc1-c1ccc(=O)n(C)n1 (stereo not shown) [P38, 2-bromo-6-(1-cyanocyclopropyl)-N-[1-[3-(1-methyl-6-oxo-pyridazin-3-yl)pyrazin-2-yl]ethyl]pyridine-4-carboxamide]
≥ 80%: percent control (mortality or growth inhibition) at 200 ppm (Plutella xylostella) | percent control (mortality, anti-feedant effect or growth inhibition) at 200 ppm (Chilo suppressalis) | percent control (mortality, anti-feedant effect or growth inhibition) at 200 ppm (Spodoptera littoralis)

CC(NC(=O)c1cc(Br)cc(Br)c1)c1nccnc1-c1ccc(=O)n(C)n1 (stereo not shown) [P13, 3,5-dibromo-N-[1-[3-(1-methyl-6-oxo-pyridazin-3-yl)pyrazin-2-yl]ethyl]benzamide]
≥ 80%: percent control (mortality or growth inhibition) at 200 ppm (Plutella xylostella) | percent control (mortality, anti-feedant effect or growth inhibition) at 200 ppm (Chilo suppressalis) | percent control (mortality, anti-feedant effect or growth inhibition) at 200 ppm (Spodoptera littoralis) | mortality at 12 ppm (Myzus persicae) | percent control (mortality or growth inhibition) at 200 ppm (Diabrotica balteata)

CC(NC(=O)c1cc(Br)cc(C(F)(F)F)c1)c1nccnc1-c1cn(C)c(=O)cn1 (stereo not shown) [P48, 3-bromo-N-[1-[3-(4-methyl-5-oxo-pyrazin-2-yl)pyrazin-2-yl]ethyl]-5-(trifluoromethyl)benzamide]
≥ 80%: percent control (mortality or growth inhibition) at 200 ppm (Plutella xylostella) | percent control (mortality, anti-feedant effect or growth inhibition) at 200 ppm (Chilo suppressalis) | percent control (mortality, anti-feedant effect or growth inhibition) at 200 ppm (Spodoptera littoralis) | mortality at 12 ppm (Myzus persicae) | percent control (mortality or growth inhibition) at 200 ppm (Diabrotica balteata)

C[C@H](NC(=O)c1cc(Cl)cc(OC(F)F)c1)c1ncnn1-c1ccc(=O)n(C)n1 [P37, 3-chloro-5-(difluoromethoxy)-N-[(1S)-1-[2-(1-methyl-6-oxo-pyridazin-3-yl)-1,2,4-triazol-3-yl]ethyl]benzamide]
≥ 80%: percent effect (mortality or growth inhibition) at 200 ppm (Euschistus heros) | percent control (mortality or growth inhibition) at 200 ppm (Plutella xylostella) | mortality at 12 ppm (Myzus persicae) | percent control (mortality or growth inhibition) at 200 ppm (Diabrotica balteata)

CC(NC(=O)c1cc(C(F)(F)F)cc(C(F)(F)F)c1)c1nccnc1-c1ccc(=O)n(C)n1 (stereo not shown) [P3, N-[1-[3-(1-methyl-6-oxo-pyridazin-3-yl)pyrazin-2-yl]ethyl]-3,5-bis(trifluoromethyl)benzamide]
≥ 80%: percent control (mortality or growth inhibition) at 200 ppm (Plutella xylostella) | percent control (mortality, anti-feedant effect or growth inhibition) at 200 ppm (Chilo suppressalis) | percent control (mortality, anti-feedant effect or growth inhibition) at 200 ppm (Spodoptera littoralis) | mortality at 12 ppm (Myzus persicae) | percent control (mortality or growth inhibition) at 200 ppm (Diabrotica balteata)

C[C@H](NC(=O)c1cc(Cl)cc(S(=O)(=O)C(F)(F)F)c1)c1ncnn1C1=NN(C)C(=O)CC1 [P21, 3-chloro-N-[(1S)-1-[2-(1-methyl-6-oxo-4,5-dihydropyridazin-3-yl)-1,2,4-triazol-3-yl]ethyl]-5-(trifluoromethylsulfonyl) benzamide]
≥ 80%: percent effect (mortality or growth inhibition) at 200 ppm (Euschistus heros) | percent control (mortality or growth inhibition) at 200 ppm (Plutella xylostella) | percent control (mortality, anti-feedant effect or growth inhibition) at 200 ppm (Chilo suppressalis) | percent control (mortality, anti-feedant effect or growth inhibition) at 200 ppm (Spodoptera littoralis) | mortality at 12 ppm (Myzus persicae) | percent control (mortality or growth inhibition) at 200 ppm (Diabrotica balteata)

CC(NC(=O)c1cc(Br)cc(I)c1)c1nccnc1-c1ccc(=O)n(C)n1 (stereo not shown) [P15, 3-bromo-5-iodo-N-[1-[3-(1-methyl-6-oxo-pyridazin-3-yl)pyrazin-2-yl]ethyl]benzamide]
≥ 80%: percent control (mortality or growth inhibition) at 200 ppm (Plutella xylostella) | percent control (mortality, anti-feedant effect or growth inhibition) at 200 ppm (Chilo suppressalis) | percent control (mortality, anti-feedant effect or growth inhibition) at 200 ppm (Spodoptera littoralis) | mortality at 12 ppm (Myzus persicae)

CC(NC(=O)c1cc(Cl)cc(S(=O)(=O)C(F)(F)F)c1)c1nccnc1-c1ccc(=O)n(C)n1 (stereo not shown) [P31, 3-chloro-N-[1-[3-(1-methyl-6-oxo-pyridazin-3-yl)pyrazin-2-yl]ethyl]-5-(trifluoromethylsulfonyl) benzamide]
≥ 80%: percent control (mortality or growth inhibition) at 200 ppm (Plutella xylostella) | percent control (mortality, anti-feedant effect or growth inhibition) at 200 ppm (Chilo suppressalis) | percent control (mortality, anti-feedant effect or growth inhibition) at 200 ppm (Spodoptera littoralis) | mortality at 12 ppm (Myzus persicae)

CC(NC(=O)c1cc(Cl)cc(I)c1)c1nccnc1-c1ccc(=O)n(C)n1 (stereo not shown) [P12, 3-chloro-5-iodo-N-[1-[3-(1-methyl-6-oxo-pyridazin-3-yl)pyrazin-2-yl]ethyl]benzamide]
≥ 80%: percent control (mortality or growth inhibition) at 200 ppm (Plutella xylostella) | percent control (mortality, anti-feedant effect or growth inhibition) at 200 ppm (Chilo suppressalis) | percent control (mortality, anti-feedant effect or growth inhibition) at 200 ppm (Spodoptera littoralis) | mortality at 12 ppm (Myzus persicae) | percent control (mortality or growth inhibition) at 200 ppm (Diabrotica balteata)

C[C@H](NC(=O)c1cc(Cl)cc(C(F)(F)F)c1)c1ncnn1-c1ccc(=O)n(C)n1 [P4, 3-chloro-N-[(1S)-1-[2-(1-methyl-6-oxo-pyridazin-3-yl)-1,2,4-triazol-3-yl]ethyl]-5-(trifluoromethyl) benzamide]
≥ 80%: percent effect (mortality or growth inhibition) at 200 ppm (Euschistus heros) | percent control (mortality or growth inhibition) at 200 ppm (Plutella xylostella) | percent control (mortality, anti-feedant effect or growth inhibition) at 200 ppm (Chilo suppressalis) | percent control (mortality, anti-feedant effect or growth inhibition) at 200 ppm (Spodoptera littoralis) | mortality at 12 ppm (Myzus persicae) | percent control (mortality or growth inhibition) at 200 ppm (Diabrotica balteata)

C[C@H](NC(=O)c1cc(Br)nc(C2(C#N)CC2)c1)c1ncnn1-c1ccc(=O)n(C)n1 [P39, 2-bromo-6-(1-cyanocyclopropyl)-N-[(1S)-1-[2-(1-methyl-6-oxo-pyridazin-3-yl)-1,2,4-triazol-3-yl]ethyl]pyridine-4-carboxamide]
≥ 80%: percent effect (mortality or growth inhibition) at 200 ppm (Euschistus heros)

CC(NC(=O)c1cc(Cl)cc(C(F)F)c1)c1nccnc1-c1ccc(=O)n(C)n1 (stereo not shown) [P41, 3-chloro-5-(difluoromethyl)-N-[1-[3-(1-methyl-6-oxo-pyridazin-3-yl)pyrazin-2-yl]ethyl]benzamide]
≥ 80%: percent control (mortality or growth inhibition) at 200 ppm (Plutella xylostella) | percent control (mortality, anti-feedant effect or growth inhibition) at 200 ppm (Chilo suppressalis) | percent control (mortality, anti-feedant effect or growth inhibition) at 200 ppm (Spodoptera littoralis) | mortality at 12 ppm (Myzus persicae) | percent control (mortality or growth inhibition) at 200 ppm (Diabrotica balteata)
